In article PMC5218480 (PLoS ONE, 2017):

System: MV-4-11 cells
Assay: Gene expression microarray analysis (Affymetrix PrimeView) and GSEA
Format: cell-based, human
Design: RFU PODN (11730768_x_at) / Fold change /veh PODN (11730768_x_at) / RFU LINC00158 (11744669_a_at) / Fold change /veh LINC00158 (11744669_a_at) / RFU DUSP10 (11751237_a_at) / Fold change /veh DUSP10 (11751237_a_at) / RFU ID3 (11757404_x_at) / Fold change /veh ID3 (11757404_x_at) / RFU PLEKHG5 (11737974_s_at) / Fold change /veh PLEKHG5 (11737974_s_at) / RFU LRRC4B (11730491_at) / Fold change /veh LRRC4B (11730491_at) / RFU GIMAP4 (11747438_a_at) / Fold change /veh GIMAP4 (11747438_a_at) / RFU KRT8 (11758183_x_at) / Fold change /veh KRT8 (11758183_x_at) / RFU CNN1 (11734310_a_at) / Fold change /veh CNN1 (11734310_a_at) / RFU VPS37D (11726825_at) / Fold change /veh VPS37D (11726825_at) / RFU C10orf10 (11716522_x_at) / Fold change /veh C10orf10 (11716522_x_at) / RFU KIR2DL2 /// KIR2DL4 /// KIR2DL5A /// KIR2DL5B /// KIR2DS1 /// KIR2DS2 /// KIR2DS3 /// KIR2DS4 /// KIR3DL3 /// KIR3DL3 /// KIR3DS1 (11738374_at) / Fold change /veh KIR2DL2 /// KIR2DL4 /// KIR2DL5A /// KIR2DL5B /// KIR2DS1 /// KIR2DS2 /// KIR2DS3 /// KIR2DS4 /// KIR3DL3 /// KIR3DL3 /// KIR3DS1 (11738374_at) / RFU C1QL1 (11718748_at) / Fold change /veh C1QL1 (11718748_at) / RFU TMPRSS4 (11747572_a_at) / Fold change /veh TMPRSS4 (11747572_a_at) / RFU HAMP (11756126_x_at) / Fold change /veh HAMP (11756126_x_at) / RFU RNFT2 (11725882_a_at) / Fold change /veh RNFT2 (11725882_a_at) / RFU NR4A2 (11747474_a_at) / Fold change /veh NR4A2 (11747474_a_at) / RFU ABCC12 (11746883_a_at) / Fold change /veh ABCC12 (11746883_a_at) / RFU TMEM136 (11760407_x_at) / Fold change /veh TMEM136 (11760407_x_at) / RFU CLDN22 /// WWC2 (11732394_at) / Fold change /veh CLDN22 /// WWC2 (11732394_at) / RFU HLA-DPB1 (11760878_x_at) / Fold change /veh HLA-DPB1 (11760878_x_at) / RFU SPINT1 (11716480_a_at) / Fold change /veh SPINT1 (11716480_a_at) / RFU GAP43 (11754022_s_at) / Fold change /veh GAP43 (11754022_s_at) / RFU A4GNT (11735810_at) / Fold change /veh A4GNT (11735810_at) / RFU PRB3 (11715151_x_at) / Fold change /veh PRB3 (11715151_x_at) / RFU TUBB4B (11761932_at) / Fold change /veh TUBB4B (11761932_at) / RFU CAPN14 (11732068_a_at) / Fold change /veh CAPN14 (11732068_a_at) / RFU TMCC2 (11721928_a_at) / Fold change /veh TMCC2 (11721928_a_at) / RFU IRGQ (11745062_a_at) / Fold change /veh IRGQ (11745062_a_at) / RFU FAM174B (11720279_a_at) / Fold change /veh FAM174B (11720279_a_at) / RFU TMPRSS4 (11748680_a_at) / Fold change /veh TMPRSS4 (11748680_a_at) / RFU FAM212B (11763350_a_at) / Fold change /veh FAM212B (11763350_a_at) / RFU PLEKHG5 (11743358_a_at) / Fold change /veh PLEKHG5 (11743358_a_at) / RFU ZSCAN30 (11745921_a_at) / Fold change /veh ZSCAN30 (11745921_a_at) / RFU CMKLR1 (11741424_a_at) / Fold change /veh CMKLR1 (11741424_a_at) / RFU LOC101060620 /// MAPK8IP1 (11723275_at) / Fold change /veh LOC101060620 /// MAPK8IP1 (11723275_at) / RFU SPTSSB (11747773_x_at) / Fold change /veh SPTSSB (11747773_x_at) / RFU PRSS12 (11739890_at) / Fold change /veh PRSS12 (11739890_at) / RFU BIN1 (11741810_x_at) / Fold change /veh BIN1 (11741810_x_at) / RFU WNT11 (11732464_a_at) / Fold change /veh WNT11 (11732464_a_at) / RFU C10orf10 (11716521_a_at) / Fold change /veh C10orf10 (11716521_a_at) / RFU C5orf56 (11738089_at) / Fold change /veh C5orf56 (11738089_at) / RFU CYB561 (11721691_x_at) / Fold change /veh CYB561 (11721691_x_at) / RFU ANKRD19P (11752326_a_at) / Fold change /veh ANKRD19P (11752326_a_at) / RFU OR2T12 /// OR2T33 /// OR2T8 (11738714_s_at) / Fold change /veh OR2T12 /// OR2T33 /// OR2T8 (11738714_s_at) / RFU VCAN (11748164_a_at) / Fold change /veh VCAN (11748164_a_at) / RFU JSRP1 (11732532_at) / Fold change /veh JSRP1 (11732532_at) / RFU KRTAP10-11 (11738290_x_at) / Fold change /veh KRTAP10-11 (11738290_x_at) / RFU MYO3A (11730013_a_at) / Fold change /veh MYO3A (11730013_a_at) / RFU EBF3 (11725865_a_at) / Fold change /veh EBF3 (11725865_a_at) / RFU CAMK2N1 (11719241_x_at) / Fold change /veh CAMK2N1 (11719241_x_at) / RFU C5orf56 (11738088_a_at) / Fold change /veh C5orf56 (11738088_a_at) / RFU OLFML3 (11715873_a_at) / Fold change /veh OLFML3 (11715873_a_at) / RFU LOC100653217 /// NTM (11731650_a_at) / Fold change /veh LOC100653217 /// NTM (11731650_a_at) / RFU MAPK11 (11762145_a_at) / Fold change /veh MAPK11 (11762145_a_at) / RFU FIZ1 (11724087_x_at) / Fold change /veh FIZ1 (11724087_x_at) / RFU OASL (11726364_x_at) / Fold change /veh OASL (11726364_x_at) / RFU SOX15 (11748057_x_at) / Fold change /veh SOX15 (11748057_x_at) / RFU CD79A (11719716_a_at) / Fold change /veh CD79A (11719716_a_at) / RFU HIST1H1D (11736915_at) / Fold change /veh HIST1H1D (11736915_at) / RFU CASKIN2 (11723855_a_at) / Fold change /veh CASKIN2 (11723855_a_at) / RFU LOC730098 (11760151_x_at) / Fold change /veh LOC730098 (11760151_x_at) / RFU OR4N2 (11742367_at) / Fold change /veh OR4N2 (11742367_at) / RFU PRRT2 (11749266_a_at) / Fold change /veh PRRT2 (11749266_a_at) / RFU SNX32 (11753110_a_at) / Fold change /veh SNX32 (11753110_a_at) / RFU CDHR5 (11726645_a_at) / Fold change /veh CDHR5 (11726645_a_at) / RFU RCAN1 (11760418_a_at) / Fold change /veh RCAN1 (11760418_a_at) / RFU FAM167A (11723789_a_at) / Fold change /veh FAM167A (11723789_a_at) / RFU FAM26E (11764081_at) / Fold change /veh FAM26E (11764081_at) / RFU ISYNA1 (11749810_s_at) / Fold change /veh ISYNA1 (11749810_s_at) / RFU ACY1 (11761880_at) / Fold change /veh ACY1 (11761880_at) / RFU 11764098_at / Fold change /veh 11764098_at / RFU SAMD14 (11745864_x_at) / Fold change /veh SAMD14 (11745864_x_at) / RFU NPB (11741838_a_at) / Fold change /veh NPB (11741838_a_at) / RFU TMPRSS6 (11731388_a_at) / Fold change /veh TMPRSS6 (11731388_a_at) / RFU KRTAP10-2 (11738614_at) / Fold change /veh KRTAP10-2 (11738614_at) / RFU ARHGAP8 /// PRR5-ARHGAP8 (11727945_x_at) / Fold change /veh ARHGAP8 /// PRR5-ARHGAP8 (11727945_x_at) / RFU KRTAP5-7 /// NADSYN1 (11734609_at) / Fold change /veh KRTAP5-7 /// NADSYN1 (11734609_at) / RFU RASL12 (11751679_a_at) / Fold change /veh RASL12 (11751679_a_at) / RFU CDKN2B (11736163_a_at) / Fold change /veh CDKN2B (11736163_a_at) / RFU PRF1 (11729649_at) / Fold change /veh PRF1 (11729649_at) / RFU, ZNF638 /// ZNF638-IT1 / Fold change vs veh, ZNF638 /// ZNF638-IT1 / RFU, PANK3 / Fold change vs veh, PANK3 / RFU, SH3YL1 / Fold change vs veh, SH3YL1 / RFU, ZEB2 / Fold change vs veh, ZEB2 / RFU, NRIP1 / Fold change vs veh, NRIP1 / RFU, PTTG1IP / Fold change vs veh, PTTG1IP / RFU, CAPN2 / Fold change vs veh, CAPN2 / RFU, MED14 / Fold change vs veh, MED14 / RFU, SNORA58 / Fold change vs veh, SNORA58 / RFU, C1orf63 / Fold change vs veh, C1orf63 / RFU, LRRFIP1 / Fold change vs veh, LRRFIP1 / RFU, NDUFAF7 / Fold change vs veh, NDUFAF7 / RFU, SLC12A2 / Fold change vs veh, SLC12A2 / RFU, IBTK / Fold change vs veh, IBTK / RFU, ESF1 / Fold change vs veh, ESF1 / Fold change vs veh, TMEM50B / RFU, TAOK1 / Fold change vs veh, TAOK1 / RFU, ACBD3 / Fold change vs veh, ACBD3 / RFU, TMA16 / Fold change vs veh, TMA16 / RFU, RWDD3 / Fold change vs veh, RWDD3 / RFU, BCAT1 / Fold change vs veh, BCAT1 / RFU, EDEM3 / Fold change vs veh, EDEM3 / RFU, TMEM33 / Fold change vs veh, TMEM33 / RFU, WDR75 / Fold change vs veh, WDR75 / RFU, AHCTF1 / Fold change vs veh, AHCTF1 / RFU, TFRC / Fold change vs veh, TFRC / RFU, ZDHHC17 / Fold change vs veh, ZDHHC17 / RFU, NOM1 / Fold change vs veh, NOM1 / RFU, ARL8B / Fold change vs veh, ARL8B / RFU, ZBTB11 / Fold change vs veh, ZBTB11 / RFU, TAMM41 / Fold change vs veh, TAMM41 / RFU, KIAA1704 /// LOC100996395 / Fold change vs veh, KIAA1704 /// LOC100996395 / RFU, ING1 / Fold change vs veh, ING1 / RFU, TRMT61B / Fold change vs veh, TRMT61B / RFU, FUBP3 / Fold change vs veh, FUBP3 / RFU, TP53 / Fold change vs veh, TP53 / RFU, TNKS2 / Fold change vs veh, TNKS2 / RFU, ZFP14 / Fold change vs veh, ZFP14 / RFU, ACTR2 / Fold change vs veh, ACTR2 / RFU, PPP3R1 / Fold change vs veh, PPP3R1 / RFU, PIK3R1 / Fold change vs veh, PIK3R1 / RFU, HNRNPA1 / Fold change vs veh, HNRNPA1 / RFU, RNF170 / Fold change vs veh, RNF170 / RFU, ZNF28 / Fold change vs veh, ZNF28 / RFU, RNGTT / Fold change vs veh, RNGTT / RFU, OGT / Fold change vs veh, OGT / RFU, BRD1 / Fold change vs veh, BRD1 / RFU, MARS / Fold change vs veh, MARS / RFU, ZNF655 / Fold change vs veh, ZNF655 / RFU, FAHD1 / Fold change vs veh, FAHD1 / RFU, BDP1 / Fold change vs veh, BDP1 / RFU, LRRCC1 / Fold change vs veh, LRRCC1 / RFU, ARID1A / Fold change vs veh, ARID1A / RFU, ZNF146 / Fold change vs veh, ZNF146 / RFU, ZNF330 / Fold change vs veh, ZNF330 / RFU, GPN3 / Fold change vs veh, GPN3 / RFU, C9orf123 / Fold change vs veh, C9orf123 / RFU, N4BP2L2 / Fold change vs veh, N4BP2L2 / RFU, ARFIP1 / Fold change vs veh, ARFIP1 / RFU, FAM179B / Fold change vs veh, FAM179B / RFU, BCL10 / Fold change vs veh, BCL10 / RFU, UHRF1BP1L / Fold change vs veh, UHRF1BP1L / RFU, BET1 / Fold change vs veh, BET1 / RFU, CNOT2 / Fold change vs veh, CNOT2 / RFU, ZNF268 / Fold change vs veh, ZNF268 / Fold change vs veh, ZNF507 / RFU, DGCR2 / Fold change vs veh, DGCR2 / RFU, WDSUB1 / Fold change vs veh, WDSUB1 / Fold change vs veh, HSP90B1 /// MIR3652 / RFU, ADSS / Fold change vs veh, ADSS / RFU, GK / Fold change vs veh, GK / RFU, ZNF148 / Fold change vs veh, ZNF148 / RFU, TAF9 / Fold change vs veh, TAF9 / RFU, SLC1A5 / Fold change vs veh, SLC1A5 / RFU, SLMO2 / Fold change vs veh, SLMO2 / RFU, ABCC4 / Fold change vs veh, ABCC4 / RFU, LOC101060439 /// RAP1B / Fold change vs veh, LOC101060439 /// RAP1B / RFU, RFX7 / Fold change vs veh, RFX7 / RFU, GTPBP10 / Fold change vs veh, GTPBP10 / RFU, CNEP1R1 / Fold change vs veh, CNEP1R1 / RFU, BIVM-ERCC5 /// ERCC5 / Fold change vs veh, BIVM-ERCC5 /// ERCC5 / RFU, ILF3 / Fold change vs veh, ILF3 / RFU 11762660_at / Fold change /veh 11762660_at / RFU VCAN (11757783_s_at) / Fold change /veh VCAN (11757783_s_at) / RFU DDX43 (11728927_at) / Fold change /veh DDX43 (11728927_at) / RFU KRT8 (11758188_x_at) / Fold change /veh KRT8 (11758188_x_at) / RFU NKD1 (11759106_at) / Fold change /veh NKD1 (11759106_at) / RFU SRD5A1 (11742802_a_at) / Fold change /veh SRD5A1 (11742802_a_at) / RFU TPSAB1 /// TPSB2 (11721975_s_at) / Fold change /veh TPSAB1 /// TPSB2 (11721975_s_at) / RFU GSTM3 (11746129_a_at) / Fold change /veh GSTM3 (11746129_a_at) / RFU IL23R (11737362_x_at) / Fold change /veh IL23R (11737362_x_at) / RFU TMEM51 (11727254_a_at) / Fold change /veh TMEM51 (11727254_a_at) / RFU PIWIL2 (11732686_x_at) / Fold change /veh PIWIL2 (11732686_x_at) / RFU ORM1 (11744905_x_at) / Fold change /veh ORM1 (11744905_x_at) / RFU CCDC152 (11743942_at) / Fold change /veh CCDC152 (11743942_at) / RFU ECM1 (11717891_a_at) / Fold change /veh ECM1 (11717891_a_at) / RFU IL23R (11748794_a_at) / Fold change /veh IL23R (11748794_a_at) / RFU TNFAIP8L3 (11732012_x_at) / Fold change /veh TNFAIP8L3 (11732012_x_at) / RFU MBOAT4 (11741988_at) / Fold change /veh MBOAT4 (11741988_at) / RFU 11764193_at / Fold change /veh 11764193_at / RFU TMEM53 (11763286_at) / Fold change /veh TMEM53 (11763286_at) / RFU MAGEB2 (11727129_at) / Fold change /veh MAGEB2 (11727129_at) / RFU TMEM200A (11744735_a_at) / Fold change /veh TMEM200A (11744735_a_at) / RFU CCDC152 (11751479_a_at) / Fold change /veh CCDC152 (11751479_a_at) / RFU FAM211A (11726209_a_at) / Fold change /veh FAM211A (11726209_a_at) / RFU RGS16 (11746705_a_at) / Fold change /veh RGS16 (11746705_a_at) / RFU VCAN (11755009_s_at) / Fold change /veh VCAN (11755009_s_at) / RFU RHOB (11743442_s_at) / Fold change /veh RHOB (11743442_s_at) / RFU RGS16 (11720943_a_at) / Fold change /veh RGS16 (11720943_a_at) / RFU RGS16 (11720944_at) / Fold change /veh RGS16 (11720944_at) / RFU, VPS4B / Fold change vs veh, VPS4B / RFU, CREB1 / Fold change vs veh, CREB1 / RFU, DNAJC13 / Fold change vs veh, DNAJC13 / RFU, GNAQ / Fold change vs veh, GNAQ / RFU, CDK5R1 / Fold change vs veh, CDK5R1 / RFU, ZRANB3 / Fold change vs veh, ZRANB3 / RFU, CUL4A / Fold change vs veh, CUL4A / RFU, CCNY / Fold change vs veh, CCNY / RFU, UFL1 / Fold change vs veh, UFL1 / RFU, COG3 / Fold change vs veh, COG3 / RFU, DIAPH2 / Fold change vs veh, DIAPH2 / RFU, SKA2 / Fold change vs veh, SKA2 / RFU, AFF3 / Fold change vs veh, AFF3 / RFU, LMF1 / Fold change vs veh, LMF1 / RFU, IPO11 / Fold change vs veh, IPO11 / RFU, DFFB / Fold change vs veh, DFFB / RFU, FOXP1 / Fold change vs veh, FOXP1 / RFU, CARD8 / Fold change vs veh, CARD8 / RFU, STRN3 / Fold change vs veh, STRN3 / RFU, ADK / Fold change vs veh, ADK / RFU, RASSF2 / Fold change vs veh, RASSF2 / RFU, WIPF1 / Fold change vs veh, WIPF1 / RFU, LARP1B / Fold change vs veh, LARP1B / RFU, RASA1 / Fold change vs veh, RASA1 / RFU, RB1 / Fold change vs veh, RB1 / RFU, PPFIA1 / Fold change vs veh, PPFIA1 / RFU, MAT2A / Fold change vs veh, MAT2A / RFU, CCT5 / Fold change vs veh, CCT5 / RFU, WDR92 / Fold change vs veh, WDR92 / RFU, CUX1 / Fold change vs veh, CUX1 / RFU, TTC7A / Fold change vs veh, TTC7A / RFU, TMEM135 / Fold change vs veh, TMEM135 / RFU, DEPTOR / Fold change vs veh, DEPTOR / RFU, CPM / Fold change vs veh, CPM / RFU, DNAJB6 / Fold change vs veh, DNAJB6 / RFU, CACNA2D3 / Fold change vs veh, CACNA2D3 / RFU, DTX4 / Fold change vs veh, DTX4 / RFU, TFCP2 / Fold change vs veh, TFCP2 / RFU, GMCL1 /// GMCL1P1 / Fold change vs veh, GMCL1 /// GMCL1P1 / RFU, AEBP2 / Fold change vs veh, AEBP2 / RFU, SNHG1 /// SNORD22 /// SNORD25 /// SNORD26 /// SNORD27 /// SNORD28 /// SNORD29 /// SNORD31 / Fold change vs veh, SNHG1 /// SNORD22 /// SNORD25 /// SNORD26 /// SNORD27 /// SNORD28 /// SNORD29 /// SNORD31 / Fold change (Aza/veh), C12orf56 (ProbeSet 11735607_a_at) / Fold change (ACY-1035/veh), C12orf56 (ProbeSet 11735607_a_at) / Fold change (Aza/veh), FGFR1OP (ProbeSet 11751329_s_at) / Fold change (ACY-1035/veh), FGFR1OP (ProbeSet 11751329_s_at) / Fold change (Aza/veh), VPS36 (ProbeSet 11739960_a_at) / Fold change (ACY-1035/veh), VPS36 (ProbeSet 11739960_a_at) / RFU SYPL1 (11715823_x_at) / Fold change /veh SYPL1 (11715823_x_at) / RFU IGFBP7 (11715501_s_at) / Fold change /veh IGFBP7 (11715501_s_at) / RFU REEP3 (11722064_at) / Fold change /veh REEP3 (11722064_at) / RFU IGLL1 (11728026_x_at) / Fold change /veh IGLL1 (11728026_x_at): dose or concentration left out as unconfirmed
Conditions: ProbeSet 11726661_s_at; LIST B

Nc1ncn([C@@H]2O[C@H](CO)[C@@H](O)[C@H]2O)c(=O)n1 [azacitidine]
Fold change vs veh, GPN3: 0.91
